Each structure is given as a SMILES string. Read-outs that look alike come from different tables or passages of the source.

For assay [1], the system named is chloroquine-resistant P. falciparum strain Dd2. The experiment in a line: Malstat assay, chloroquine-resistant strain Dd2. The settings on record: for RI, resistance index = IC50 (Dd2)/IC50 (3D7): Dd2 vs 3D7; for IC50 / IC90: Plasmodium falciparum; for IC50: read-out: IC50 P. falciparum Dd2; for IC90: read-out: IC90 P. falciparum Dd2. In kind it is cell-based, Plasmodium falciparum. As for the experimental part: (§1) The chloroquine-sensitive Plasmodium falciparum strain 3D7 and the chloroquine-resistant strain Dd2 were cultivated in vitro at 5% hematocrit in complete medium comprising RPMI 1640/HEPES medium supplemented with 0.5% w/w Albumax II, 10 µg/mL gentamicin, and 50 µg/mL hypoxanthine. Cultures were maintained at 37 °C in an atmosphere of 5% CO2, 5% O2, and 90% N2. To enrich parasites in the ring-stage, an asexual blood stage culture was synchronized. The culture was centrifuged at 1000× g for 3 min, and the supernatant was discarded. The cell pellet was resuspended in 5% sorbitol and incubated at room temperature for 10 min. Subsequently, the culture was centrifuged, and the pellet was washed with RPMI 1640/HEPES medium. After a final centrifugation step, the cell pellet was resuspended in fresh complete medium and returned to standard culture conditions for further cultivation. Human serum and erythrocyte concentrate were obtained from the Department of Transfusion Medicine, University Hospital Aachen, Germany. Donor sera and blood samples were pooled and kept anonymous. The work with human blood was approved by the Ethics Commission of the RWTH University Hospital (EK 007/13).
(§2) Synchronized ring-stage cultures of the P. falciparum strains 3D7 and Dd2 mixed with the compound were plated in triplicate into 96-well plates (200 µL/well) at a parasitemia of 1%. […] In addition, a dilution series with chloroquine with concentrations between 500 nM and 4 nM was used as a positive control and 0.5% v/v DMSO was used as a negative control. The cultures were then incubated under standard culture conditions for 72 h. Following incubation, 20 µL of the culture was transferred in triplicate to a new 96-well plate and mixed with 100 µL of Malstat reagent (0.1% v/v Triton X-100, 1 g L-lactate, 0.33 g Tris and 33 mg of 3-acetylpyridine adenine dinucleotide in 100 mL distilled water, pH 9.0) and 20 µL mixture of NBT and diaphorase (1:1 v/v; 1 mg/mL stock each). After colour development in the wells, absorbance was measured at OD630nm using a Tecan Plate Reader. The IC50 and IC90 values of the compounds were then determined using the GraphPad Prism software.

Assay [2] relates to chloroquine-sensitive Plasmodium falciparum strain 3D7. The assay can be described thus: Malstat assay, chloroquine-sensitive strain 3D7. The format is cell-based. To be noted: for IC50 / IC90: Plasmodium falciparum; for IC50: read-out: P. falciparum 3D7 IC50; for IC90: read-out: P. falciparum 3D7 IC90. As for the experimental part: as §1, §2
Assay [3] deals with Human umbilical vein endothelial cells (HUVECs). The experiment in a line: Cytotoxicity assay (CellTiter-Blue cell viability assay). To be noted: HUVEC, 72 h. The format is cell-based. Here is the method: Human umbilical vein endothelial cells (HUVECs) were purchased from Promocell (Heidelberg, Germany) and cultivated with ECGM Kit enhanced (PELO Biotech, Planegg, Germany) supplemented with 10% (FCS) (PAA Laboratories, Cölbe, Germany) and 1% penicillin/streptomycin/amphotericin B (all purchased from PAN Biotech). Cells were cultured at 37 °C with 5% CO2 with constant humidity. Cell proliferation was assessed using the CellTiter-Blue cell viability assay (Promega, Madison, WI, USA). Cells were treated as indicated for 72 h and 4 h before termination CellTiter-Blue reagent was added in a ratio of 1:10. Fluorescence intensity was determined by using the SpectraFluor Plus plate reader (Tecan, Männedorf, Switzerland) at 550 nm excitation and 595 nm emission wavelength. Fluorescence intensity is proportional to the cell number. Non-linear regression was carried out using the log(inhibitor) vs. response–variable slope (four parameters) function of GraphPad Prism (San Diego, CA, USA).
Figure 4 Cytotoxic effects of cassiarin A (5) and analogs 11b, 11c, and 11d on proliferation of HUVEC assessed by CellTiter-Blue^TM assay. IC50 values were determined using the log(inhibitor) vs. response—variable slope (four parameters) function of GraphPad Prism (10.4.0). Data are shown as mean ± SD.
For orientation: The colour change of resazurin is a common sign of viable cells or microbes.

Assay [4] shares this test system. To be noted: cited from earlier work.
Setting [5] is: chloroquine-resistant strain Dd2, Malstat assay, 72 h.
The mark [6] stands for this setting: chloroquine-sensitive strain 3D7, Malstat assay, 72 h.

By IC50 is commonly meant the point on the concentration scale where inhibition reaches its midpoint. For orientation: IC90 means the point of the concentration-response curve where the effect stands at 90%. Consider `Cc1cc2cc(O)cc3c2c(n1)C=C(c1ccc(O)cc1)O3` [Compound 11g, 2-(4-Hydroxyphenyl)-5-methylpyrano[2,3,4-ij]isoquinolin-8-ol], for which the “RI, resistance index = IC50 (Dd2)/IC50 (3D7)” value (from here on “RI, resistance index = IC50”) in assay [1] is 4.8. Also, the IC50 came to 1.9 ± 1.01 µM in assay [1] (setting [5]) and 0.4 ± 0.03 µM in assay [2] (setting [6]). The figures for the IC90 in assay [1] (setting [5]) and in assay [2] (setting [6]) were 5.9 ± 3.42 µM and 0.9 ± 0.54 µM, respectively.

Take `COC(=O)c1ccc(C2=Cc3nc(C)cc4cc(O)cc(c34)O2)cc1` [Compound 18c, Methyl 4-(8-hydroxy-5-methylpyrano[2,3,4-ij]isoquinolin-2-yl)benzoate]: the “RI, resistance index = IC50” value in assay [1] worked out at 2.0. In assay [1] (setting [5]), the IC50 is 0.4 ± 0.21 µM and the IC90 worked out at 0.8 ± 0.58 µM. Moreover, in assay [2] (setting [6]), the IC50 is 0.2 ± 0.05 µM and the IC90 worked out at 0.4 ± 0.14 µM.

With `COc1cc2c3c(nc(C)cc3c1)C=C(c1ccc(OCCO)cc1)O2` [Compound 18b, 2-(4-(8-Methoxy-5-methylpyrano[2,3,4-ij]isoquinolin-2-yl)phenoxy)ethan-1-ol], in assay [2] (setting [6]), the IC50 came out at 2.2 ± 0.58 µM and the IC90 turned out to be 3.2 ± 0.68 µM.

For `OCCc1cc2cc(O)cc3c2c(n1)C=C(c1ccccc1)O3` [Compound 11f, 5-(2-Hydroxyethyl)-2-phenylpyrano[2,3,4-ij]isoquinolin-8-ol], in assay [2] (setting [6]), the IC50 came out at 1.7 ± 0.2 µM and the IC90 turned out to be 3.4 ± 1.28 µM.

On to `Cc1cc2cc(O)cc3c2c(n1)C=C(c1ccccc1)O3` [Compound 11c, 5-Methyl-2-phenylpyrano[2,3,4-ij]isoquinolin-8-ol], for which the “RI, resistance index = IC50” value in assay [1] is recorded as 4.3. Also, the values for the IC50 in assay [1] (setting [5]), in assay [3] and in assay [2] (setting [6]) were 1.7 ± 0.74 µM, 1.23 µM and 0.4 ± 0.04 µM, respectively. Also, the concentration for an effect of 90% (IC90) is 2.1 ± 1.08 µM in assay [1] (setting [5]) and 0.5 ± 0.11 µM in assay [2] (setting [6]).

In the case of `CCCCC1=Cc2nc(C)cc3cc(O)cc(c23)O1` [Compound 18a, 2-Butyl-5-methylpyrano[2,3,4-ij]isoquinolin-8-ol], in assay [2] (setting [6]), the IC50 was determined as 1.9 ± 0.19 µM and the IC90 worked out at 2.5 ± 0.49 µM.

With `Oc1cc2c3c(nc(-c4ccccc4)cc3c1)C=C(c1ccccc1)O2` [Compound 11b, 2,5-Diphenylpyrano[2,3,4-ij]isoquinolin-8-ol], the IC50 in assay [3] was found to be 2.22 µM; in assay [2] (setting [6]) it was 2 ± 0.18 µM. In addition, the IC90 in assay [2] (setting [6]) turned out to be 2.9 ± 0.53 µM.

Take `CC1=Cc2nc(C)cc3cc(O)cc(c23)O1` [Compound 5, Cassiarin A]: the “RI, resistance index = IC50” value in assay [1] was 1.4. The results for the IC50 in assay [1] (setting [5]), in assay [3] and in assay [2] (setting [6]) were 13.6 ± 3.95 µM, 16.4 µM and 9.6 ± 0.63 µM, respectively. Besides, the IC90 in assay [1] (setting [5]) turned out to be 20.5 ± 11.9 µM; in assay [2] (setting [6]), 16.4 ± 3.07 µM.

Regarding `NCc1cc2cc(O)cc3c2c(n1)C=C(c1ccccc1)O3` [Compound 11d, 5-(Aminomethyl)-2-phenylpyrano[2,3,4-ij]isoquinolin-8-ol], in assay [1], the “RI, resistance index = IC50” value turned out to be 2.0. In addition, the concentration for half-maximal inhibition (IC50) was 1.2 ± 0.32 µM in assay [1] (setting [5]), 0.68 µM in assay [3] and 0.6 ± 0.11 µM in assay [2] (setting [6]). For the same molecule, the results for the IC90 in assay [1] (setting [5]) and in assay [2] (setting [6]) were 1.8 ± 0.17 µM and 1 ± 0.28 µM, respectively.

`C#CCOc1cc2c3c(nc(C)cc3c1)C=C(c1ccccc1)O2` [Compound 24, 5-Methyl-2-phenyl-8-(prop-2-in-1-yloxy)pyrano[2,3,4-ij]isoquinoline]: in assay [2] (setting [6]), the IC50 was no less than 100 µM and the IC90 is no less than 100 µM. In addition, the “antiplasmodial activity (in words)” value in assay [2] (strain 3D7, Malstat assay) is “complete loss of antiplasmodial activity”.

As to `CCN(CC)CCCC(C)Nc1ccnc2cc(Cl)ccc12` (centres unmarked) [Compound 2, chloroquine, reference compound], the “selectivity index (=IC50 (HUVEC)/IC50 (3D7))” value in assay [4] is 1987. Also, the “RI, resistance index = IC50” value in assay [1] was determined as 5.3. Further, the IC50 in assay [1] (DD2, 72 h) came to 0.16 ± 0.04 µM; in assay [2] (3D7, 72 h), 0.03 ± 0.01 µM. The concentration for an effect of 90% (IC90) came out at 0.23 ± 0.13 µM in assay [1] (DD2, 72 h) and 0.05 ± 0.01 µM in assay [2] (3D7, 72 h).

Consider `OCc1cc2cc(O)cc3c2c(n1)C=C(c1ccccc1)O3` [Compound 11e, 5-(Hydroxymethyl)-2-phenylpyrano[2,3,4-ij]isoquinolin-8-ol], for which, in assay [2] (setting [6]), the IC50 was 2.1 ± 0.38 µM and the IC90 was 2.7 ± 0.22 µM.

On to `CC1=Cc2nc(CN)cc3cc(O)cc(c23)O1` [Compound 11a, 5-(Aminomethyl)-2-methylpyrano[2,3,4-ij]isoquinolin-8-ol], for which, in assay [2] (setting [6]), the IC50 was determined as 31.9 ± 11.5 µM and the IC90 turned out to be 53.3 ± 10.5 µM.
